# Measured values reported in patent publication US20130096104A1, “IMIDAZOPYRIDINE COMPOUNDS, COMPOSITIONS AND METHODS OF USE” (GENENTECH, INC., priority 2010, published 2013).
# Molecular target: T1, TYK2 kinase domain (Homo sapiens, UniProt P29597)
# T1 construct: The activity of the isolated JAK1, JAK2 or TYK2 kinase domain was measured
# T1 sequence (P29597 897-1176 limits assumed): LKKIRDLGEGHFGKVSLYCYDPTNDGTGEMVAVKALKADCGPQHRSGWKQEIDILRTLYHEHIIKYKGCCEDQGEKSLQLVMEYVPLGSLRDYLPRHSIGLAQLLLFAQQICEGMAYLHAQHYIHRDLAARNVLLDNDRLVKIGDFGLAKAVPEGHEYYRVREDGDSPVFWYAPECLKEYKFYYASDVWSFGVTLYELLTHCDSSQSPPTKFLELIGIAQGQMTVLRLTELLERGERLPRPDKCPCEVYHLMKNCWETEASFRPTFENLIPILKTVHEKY
# Experiment: TYK2 inhibition assay (Example A, Caliper LabChip peptide phosphorylation)
# Type: biochemical
# Conditions: isolated kinase domain, 1 nM TYK2, 25 uM ATP, Morrison tight binding model
# Procedure: The activity of the isolated JAK1, JAK2 or TYK2 kinase domain was measured by monitoring phosphorylation of a peptide derived from JAK3 ([…] fluorescently labeled on the N-terminus with 5-carboxyfluorescein using the Caliper LabChip technology (Caliper Life Sciences, Hopkinton, Mass.). […] Reactions were incubated at 22° C. in 384-well polypropylene microtiter plates for 30 minutes and then stopped by addition of 25 uL of an EDTA containing solution (100 mM Hepes pH 7.2, 0.015% Brij-35, 150 mM EDTA), resulting in a final EDTA concentration of 50 mM. After termination of the kinase reaction, the proportion of phosphorylated product was determined as a fraction of total peptide substrate using the Caliper LabChip 3000 according to the manufacturer's specifications. Ki values were then determined using the Morrison tight binding model. Morrison, J. F., Biochim. Biophys. Acta. 185:269-296 (1969); William, J. W. and Morrison, J. F., Meth. Enzymol., 63:437-467 (1979).
row,Ki,SMILES
1,19.5 nM,"Cn1c(-c2c(Cl)cccc2Cl)nc2ccnc(NC(=O)C3CC3)c21 [Example 13, N-(2-(2,6-dichlorophenyl)-3-methyl-3H-imidazo[4,5-c]pyridine-4-yl)cyclopropanecarboxamide]"
2,4.9 nM,"CNC(=O)Nc1nccc2nc(-c3c(Cl)cccc3Cl)[nH]c12 [Example 11, 1-(2-(2,6-dichlorophenyl)-3H-imidazo[4,5-e]pyridin-4-yl)-3-methylurea]"
3,14.5 nM,"Clc1cccc(Cl)c1-c1nc2ccnc(Nc3cn[nH]c3)c2[nH]1 [Example 3, 2-(2,6-dichlorophenyl)-N-(1H-pyrazol-4-yl)-3H-imidazo[4,5-e]-pyridin-4-amine]"
4,56 nM,"COC(=O)Nc1ncnc2nc(-c3c(F)cccc3Cl)[nH]c12 [Example 208, methyl 8-(2-chloro-6-fluorophenyl)-7H-purin-6-ylcarbamate]"
5,8.1 nM,"O=C(Nc1ncnc2nc(-c3c(Cl)cccc3Cl)[nH]c12)C1CC1 [Example 15, N-(8-(2,6-dichlorophenyl)-7H-purin-6-yl)cyclopropanecarboxamide]"
6,7.8 nM,"O=C(Nc1nccc2nc(-c3c(Cl)cccc3Cl)[nH]c12)c1cncs1 [Example 7, N-(2-(2,6-dichlorophenyl)-3H-imidazo[4,5-c]pyridin-4-yl) thiazole-5-carboxamide]"
7,0.8 nM,"O=C(Nc1ncc(Cl)c2[nH]c(-c3c(Cl)cccc3Cl)nc12)C1CC1 [Example 447, Cyclopropanecarboxylic acid [7-chloro-2-(2,6-dichloro-phenyl)-1H-imidazo[4,5-c]pyridin-4-yl]-amide]"
8,2.5 nM,"N#Cc1cc(Cl)c(-c2nc3ccnc(NC(=O)C4CC4)c3[nH]2)c(Cl)c1 [Example 10, N-(2-(2,6-dichloro-4-cyanophenyl)-3H-imidazo[4,5-c]pyridin-4-yl)cyclopropanecarboxamide]"
9,0.6 nM,"Clc1cccc(Cl)c1-c1nc2ccnc(Nc3cc(N4CCOCC4)ncn3)c2[nH]1 [Example 5, 2-(2,6-dichlorophenyl)-N-(6-morpholinopyrimidin-4-yl)-3H-imidazo[4,5-e]pyridin-4-amine]"
10,27.2 nM,"CNC(=O)Nc1ncnc2nc(-c3c(Cl)cccc3Cl)[nH]c12 [Example 171, 1-(8-(2,6-dichlorophenyl)-7H-purin-6-yl)-3-methylurea]"

# Second part, the compound before the results:
row,SMILES,Ki
1,"Cc1cc(Nc2ncc(F)c3[nH]c(-c4c(Cl)cccc4Cl)nc23)nc(C)n1 [Example 16, 2-(2,6-dichlorophenyl)-N-(2,6-dimethylpyrimidin-4-yl)-7-fluoro-1H-imidazo[4,5-c]pyridin-4-amine]",2.3 nM
2,"Clc1cccc(Cl)c1-c1nc2c(Nc3ccncn3)ncnc2[nH]1 [Example 14, 8-(2,6-dichlorophenyl)-N-(pyrimidin-4-yl)-9H-purin-6-amine]",2.8 nM
3,"Cc1ccc(Nc2ncnc3nc(-c4c(Cl)cccc4Cl)[nH]c23)nc1 [Example 179, 8-(2,6-dichlorophenyl)-N-(5-methylpyridin-2-yl)-7H-purin-6-amine]",1.5 nM
4,"Cn1c(-c2c(Cl)cccc2Cl)nc2c(NC(=O)C3CC3)nccc21 [Example 12, N-(2-(2,6-dichlorophenyl)-1-methyl-1H-imidazo[4,5-c]pyridine-4-yl)cyclopropanecarboxamide]",13.3 nM
5,"O=C(Nc1ncnc2c1nc(-c1c(Cl)cccc1Cl)n2CCO)C1CC1 [Example 439, Cyclopropanecarboxylic acid [8-(2,6-dichloro-phenyl)-9-(2-hydroxy-ethyl)-9H-purin-6-yl]-amide]",835 nM
6,"N#Cc1cc(Cl)c(-c2nc3ncnc(Nc4ccc(N5CCOCC5)cn4)c3[nH]2)c(Cl)c1 [Example 197, 3,5-dichloro-4-(6-(5-morpholinopyridin-2-ylamino)-7H-purin-8-yl)benzonitrile]",1.4 nM
7,"O=C(Nc1ncnc2nc(-c3c(F)cccc3Cl)[nH]c12)C1CC1 [Example 210, N-(8-(2-chloro-6-fluorophenyl)-7H-purin-6-yl)cyclopropanecarboxamide]",27.8 nM
8,"Fc1cccc(Cl)c1-c1nc2ccnc(Nc3cnccn3)c2[nH]1 [Example 6, 2-(2-chloro-6-fluorophenyl)-N-(pyrazin-2-yl)-3H-imidazo[4,5-e]-pyridin-4-amine]",3.1 nM
9,"Cn1c(-c2c(Cl)cccc2Cl)nc2c(Nc3ccncc3)ncnc21 [Example 215, 8-(2,6-dichlorophenyl)-9-methyl-N-(pyridin-4-yl)-9H-purin-6-amine]",56.5 nM
10,"Cc1nc(Nc2ncnc3nc(-c4c(Cl)cccc4Cl)[nH]c23)cc(N2CCN(CCO)CC2)n1 [Example 167, 2-(4-{6-[8-(2,6-Dichloro-phenyl)-7H-purin-6-ylamino]-2-methyl-pyrimidin-4-yl}-piperazin-1-yl)-ethanol]",7.2 nM
11,"Clc1cccc(Cl)c1-c1nc2c(Nc3ccccn3)nccc2[nH]1 [Example 1, 2-(2,6-dichlorophenyl)-N-(pyridin-2-yl)-1H-imidazo[4,5-e]pyridin-4-amine]",1.7 nM
